What was measured:
Format in all cases: in vivo
corn (Zea mays) [1] = assay: Test G Post-Emergence Protocol; details: Zea mays, post-emergence, 312 h; for plant injury at 15.625 g/ha: 15.625 g ai/ha, evaluated after 13 days (100=total damage to plant; 0=no damage to plant), read-out: Corn damage rating; for plant injury at 62.5 g/ha: 62.5 g ai/ha, read-out: Corn damage rating (100=total damage to plant; 0=no damage to plant); for plant injury at 62.5 g/ha / plant injury at 250 g/ha: evaluated after 13 days; for plant injury at 250 g/ha: 250 g ai/ha, read-out: damage to plant, Corn (100=total damage to plant; 0=no damage to plant)
How it was run: (§1)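 Pot-grown seedlings, 8 days old, raised in a glasshouse at 24/16 °C day/night with 14 h light and 65% humidity, were sprayed post-emergence with test compound in acetone/water (50:50) plus 0.5% Tween 20 at 15.625, 62.5 or 250 g/ha. Damage was scored visually 13 days later on a 0–100 scale (100 = total damage).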

[2] = test system: redroot pigweed (Amaranthus retroflexus); assay: Test G Post-Emergence Protocol; details: Amaranthus retroflexus, post-emergence, 312 h; for pest or weed control at 15.625 g/ha: 15.625 g ai/ha, evaluated after 13 days (100=total damage to plant; 0=no damage to plant), read-out: Pigweed, Redroot damage rating; for pest or weed control at 62.5 g/ha: 62.5 g ai/ha, read-out: Pigweed, Redroot damage rating (100=total damage to plant; 0=no damage to plant); for pest or weed control at 62.5 g/ha / pest or weed control at 250 g/ha: evaluated after 13 days; for pest or weed control at 250 g/ha: 250 g ai/ha, read-out: damage to plant, Pigweed, Redroot (100=total damage to plant; 0=no damage to plant)
How it was run: as §1

[3] = test system: giant foxtail (Setaria faberi); assay: Test G Post-Emergence Protocol; details: Setaria faberi, post-emergence, 312 h; for pest or weed control at 15.625 g/ha: 15.625 g ai/ha, evaluated after 13 days (100=total damage to plant; 0=no damage to plant), read-out: Foxtail, Giant damage rating; for pest or weed control at 62.5 g/ha: 62.5 g ai/ha, read-out: Foxtail, Giant damage rating (100=total damage to plant; 0=no damage to plant); for pest or weed control at 62.5 g/ha / pest or weed control at 250 g/ha: evaluated after 13 days; for pest or weed control at 250 g/ha: 250 g ai/ha, read-out: damage to plant, Foxtail, Giant (100=total damage to plant; 0=no damage to plant)
How it was run: as §1

[4] = test system: ivy-leaved morning glory (Ipomoea hederacea); assay: Test G Post-Emergence Protocol; details: Ipomoea, post-emergence, 312 h; for pest or weed control at 15.625 g/ha: 15.625 g ai/ha, evaluated after 13 days (100=total damage to plant; 0=no damage to plant), read-out: Morningglory, Ivy-leaved damage rating; for pest or weed control at 62.5 g/ha: 62.5 g ai/ha, read-out: Morningglory, Ivy-leaved damage rating (100=total damage to plant; 0=no damage to plant); for pest or weed control at 62.5 g/ha / pest or weed control at 250 g/ha: evaluated after 13 days; for pest or weed control at 250 g/ha: 250 g ai/ha, read-out: damage to plant, Morningglory, Ivy-leaved (100=total damage to plant; 0=no damage to plant)
How it was run: as §1

[5] = test system: barnyardgrass (Echinochloa crus-galli); assay: Test G Post-Emergence Protocol; details: Echinochloa crus-galli, post-emergence, 312 h; for pest or weed control at 15.625 g/ha: 15.625 g ai/ha, evaluated after 13 days (100=total damage to plant; 0=no damage to plant), read-out: Barnyardgrass damage rating; for pest or weed control at 62.5 g/ha: 62.5 g ai/ha, read-out: Barnyardgrass damage rating (100=total damage to plant; 0=no damage to plant); for pest or weed control at 62.5 g/ha / pest or weed control at 250 g/ha: evaluated after 13 days; for pest or weed control at 250 g/ha: 250 g ai/ha, read-out: damage to plant, Barnyardgrass (100=total damage to plant; 0=no damage to plant)
How it was run: as §1

[6] = test system: velvetleaf (Abutilon theophrasti); assay: Test G Post-Emergence Protocol; details: Abutilon theophrasti, post-emergence, 312 h; for pest or weed control at 15.625 g/ha: 15.625 g ai/ha, evaluated after 13 days (100=total damage to plant; 0=no damage to plant), read-out: Velvetleaf damage rating; for pest or weed control at 62.5 g/ha: 62.5 g ai/ha, read-out: Velvetleaf damage rating (100=total damage to plant; 0=no damage to plant); for pest or weed control at 62.5 g/ha / pest or weed control at 250 g/ha: evaluated after 13 days; for pest or weed control at 250 g/ha: 250 g ai/ha, read-out: damage to plant, Velvetleaf (100=total damage to plant; 0=no damage to plant)
How it was run: as §1

corn (Zea mays) [7] = assay: Test G Pre-Emergence Protocol; details: Zea mays, pre-emergence, 312 h, evaluated after 13 days; for plant injury at 15.625 g/ha: 15.625 g ai/ha; for plant injury at 15.625 g/ha / plant injury at 250 g/ha: read-out: Corn damage rating (100=total damage to plant; 0=no damage to plant); for plant injury at 62.5 g/ha: 62.5 g ai/ha, 100=total damage to plant, 0=no damage to plant, read-out: plant damage rating, Corn; for plant injury at 250 g/ha: 250 g ai/ha
How it was run: (§2)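 Pots of seeds in standard soil were grown for one day in a glasshouse (24/16 °C day/night, 14 h light, 65% humidity), then sprayed with compound in acetone/water 50:50 with 0.5% Tween 20 at 15.625, 62.5 or 250 g/ha. Damage was scored after 13 days on a 0 (none) to 100 (total) scale.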

[8] = test system: redroot pigweed (Amaranthus retroflexus); assay: Test G Pre-Emergence Protocol; details: Amaranthus retroflexus, pre-emergence, 312 h, evaluated after 13 days; for pest or weed control at 15.625 g/ha: 15.625 g ai/ha; for pest or weed control at 15.625 g/ha / pest or weed control at 250 g/ha: read-out: Pigweed, Redroot damage rating (100=total damage to plant; 0=no damage to plant); for pest or weed control at 62.5 g/ha: 62.5 g ai/ha, 100=total damage to plant, 0=no damage to plant, read-out: plant damage rating, Pigweed, Redroot; for pest or weed control at 250 g/ha: 250 g ai/ha
How it was run: as §2

[9] = test system: giant foxtail (Setaria faberi); assay: Test G Pre-Emergence Protocol; details: Setaria faberi, pre-emergence, 312 h, evaluated after 13 days; for pest or weed control at 15.625 g/ha: 15.625 g ai/ha; for pest or weed control at 15.625 g/ha / pest or weed control at 250 g/ha: read-out: Foxtail, Giant damage rating (100=total damage to plant; 0=no damage to plant); for pest or weed control at 62.5 g/ha: 62.5 g ai/ha, 100=total damage to plant, 0=no damage to plant, read-out: plant damage rating, Foxtail, Giant; for pest or weed control at 250 g/ha: 250 g ai/ha
How it was run: as §2

[10] = test system: ivy-leaved morning glory (Ipomoea hederacea); assay: Test G Pre-Emergence Protocol; details: Ipomoea, pre-emergence, 312 h, evaluated after 13 days; for pest or weed control at 15.625 g/ha: 15.625 g ai/ha, read-out: Morning-glory, Ivy-leaved damage rating (100=total damage to plant; 0=no damage to plant); for pest or weed control at 62.5 g/ha: 62.5 g ai/ha, 100=total damage to plant, 0=no damage to plant, read-out: plant damage rating, Morningglory, Ivy-leaved; for pest or weed control at 250 g/ha: 250 g ai/ha, read-out: Morningglory, Ivy-leaved damage rating (100=total damage to plant; 0=no damage to plant)
How it was run: as §2

[11] = test system: barnyardgrass (Echinochloa crus-galli); assay: Test G Pre-Emergence Protocol; details: Echinochloa crus-galli, pre-emergence, 312 h, evaluated after 13 days; for pest or weed control at 15.625 g/ha: 15.625 g ai/ha, read-out: Barnyard grass damage rating (100=total damage to plant; 0=no damage to plant); for pest or weed control at 62.5 g/ha: 62.5 g ai/ha, 100=total damage to plant, 0=no damage to plant, read-out: plant damage rating, Barnyardgrass; for pest or weed control at 250 g/ha: 250 g ai/ha, read-out: Barnyardgrass damage rating (100=total damage to plant; 0=no damage to plant)
How it was run: as §2

[12] = test system: velvetleaf (Abutilon theophrasti); assay: Test G Pre-Emergence Protocol; details: Abutilon theophrasti, pre-emergence, 312 h, evaluated after 13 days; for pest or weed control at 15.625 g/ha: 15.625 g ai/ha; for pest or weed control at 15.625 g/ha / pest or weed control at 250 g/ha: read-out: Velvetleaf damage rating (100=total damage to plant; 0=no damage to plant); for pest or weed control at 62.5 g/ha: 62.5 g ai/ha, 100=total damage to plant, 0=no damage to plant, read-out: plant damage rating, Velvetleaf; for pest or weed control at 250 g/ha: 250 g ai/ha
How it was run: as §2

| SMILES | plant injury at 15.625 g/ha (corn (Zea mays) [1]) | plant injury at 62.5 g/ha (corn (Zea mays) [1]) | plant injury at 250 g/ha (corn (Zea mays) [1]) | pest or weed control at 15.625 g/ha [2] | pest or weed control at 62.5 g/ha [2] | pest or weed control at 250 g/ha [2] | pest or weed control at 15.625 g/ha [3] | pest or weed control at 62.5 g/ha [3] | pest or weed control at 250 g/ha [3] | pest or weed control at 15.625 g/ha [4] | pest or weed control at 62.5 g/ha [4] | pest or weed control at 250 g/ha [4] | pest or weed control at 15.625 g/ha [5] | pest or weed control at 62.5 g/ha [5] | pest or weed control at 250 g/ha [5] | pest or weed control at 15.625 g/ha [6] | pest or weed control at 62.5 g/ha [6] | pest or weed control at 250 g/ha [6] | plant injury at 15.625 g/ha (corn (Zea mays) [7]) | plant injury at 62.5 g/ha (corn (Zea mays) [7]) | other results |
| --- | --- | --- | --- | --- | --- | --- | --- | --- | --- | --- | --- | --- | --- | --- | --- | --- | --- | --- | --- | --- | --- |
| CN1C[C@H](c2ccc(C(F)(F)F)cc2)[C@@H](C(=O)Nc2cccc3nsnc23)C1=O (racemic) [Compound 1430] | 0% | 0% | 0% | 0% | 0% | 20% | 0% | 10% | 50% | 0% | 0% | 0% | 0% | 0% | 30% | 0% | 0% | 0% | 0% | 0% | plant injury at 250 g/ha (corn (Zea mays) [7]): 0%; pest or weed control at 15.625 g/ha [8]: 0%; pest or weed control at 62.5 g/ha [8]: 0%; pest or weed control at 250 g/ha [8]: 0%; pest or weed control at 15.625 g/ha [9]: 10%; pest or weed control at 62.5 g/ha [9]: 50%; pest or weed control at 250 g/ha [9]: 80%; pest or weed control at 15.625 g/ha [10]: 0%; pest or weed control at 62.5 g/ha [10]: 0%; pest or weed control at 250 g/ha [10]: 0%; pest or weed control at 15.625 g/ha [11]: 0%; pest or weed control at 62.5 g/ha [11]: 20%; pest or weed control at 250 g/ha [11]: 60%; pest or weed control at 15.625 g/ha [12]: 0%; pest or weed control at 62.5 g/ha [12]: 0%; pest or weed control at 250 g/ha [12]: 0% |
| CN1C[C@H](c2ccc(C(F)(F)F)cc2)[C@@H](C(=O)Nc2ncccc2C#N)C1=O (racemic) [Compound 1433] | 0% | 0% | 0% | 0% | 0% | 0% | 0% | 0% | 0% | 0% | 0% | 0% | 0% | 0% | 0% | 0% | 0% | 0% | 0% | 0% | plant injury at 250 g/ha (corn (Zea mays) [7]): 0%; pest or weed control at 15.625 g/ha [8]: 0%; pest or weed control at 62.5 g/ha [8]: 0%; pest or weed control at 250 g/ha [8]: 0%; pest or weed control at 15.625 g/ha [9]: 0%; pest or weed control at 62.5 g/ha [9]: 0%; pest or weed control at 250 g/ha [9]: 0%; pest or weed control at 15.625 g/ha [10]: 0%; pest or weed control at 62.5 g/ha [10]: 0%; pest or weed control at 250 g/ha [10]: 0%; pest or weed control at 15.625 g/ha [11]: 0%; pest or weed control at 62.5 g/ha [11]: 0%; pest or weed control at 250 g/ha [11]: 0%; pest or weed control at 15.625 g/ha [12]: 0%; pest or weed control at 62.5 g/ha [12]: 0%; pest or weed control at 250 g/ha [12]: 0% |
| C=CCc1c(Cl)cccc1NC(=O)[C@H]1C(=O)N(C)C[C@@H]1c1ccc(C(F)(F)F)cc1 (racemic) [Compound 1440] | 0% | 10% | 20% | 0% | 10% | 20% | 0% | 20% | 60% | 0% | 0% | 10% | 0% | 0% | 10% | 0% | 0% | 0% | 0% | 0% | plant injury at 250 g/ha (corn (Zea mays) [7]): 0%; pest or weed control at 15.625 g/ha [8]: 0%; pest or weed control at 62.5 g/ha [8]: 0%; pest or weed control at 250 g/ha [8]: 0%; pest or weed control at 15.625 g/ha [9]: 0%; pest or weed control at 62.5 g/ha [9]: 50%; pest or weed control at 250 g/ha [9]: 80%; pest or weed control at 15.625 g/ha [10]: 0%; pest or weed control at 62.5 g/ha [10]: 0%; pest or weed control at 250 g/ha [10]: 0%; pest or weed control at 15.625 g/ha [11]: 0%; pest or weed control at 62.5 g/ha [11]: 10%; pest or weed control at 250 g/ha [11]: 40%; pest or weed control at 15.625 g/ha [12]: 0%; pest or weed control at 62.5 g/ha [12]: 0%; pest or weed control at 250 g/ha [12]: 0% |

Reference: US12077503B2, “Substituted cyclic amides and their use as herbicides” (FMC CORPORATION, priority 2015, dated 2024)
